Ends that are not written are not given here.
Legend:
HLA-A*0201 molecule = HLA-A*0201 molecule (Homo sapiens, UniProt P04439, D140Y/D185E/D98H/E176V/E277Q/G131W/G231S/I119V/I121R/I166T/I218V/L300P/L318F/N151K/N90K/P208A/P217A/Q86G/Q94H/R138H/R169H/T345S); experiment: In vitro binding to HLA-A*0201
[1] = system: peptide pulsed HHD-EL4S3-Rob target cells; conditions: Corbet et al., 2003; cited from earlier work

Molecule	IC50 (HLA-A*0201 molecule) [nM]	immunogenicity of anchor-optimized epitope with cross-reaction to the natural epitope [1]
CC[C@H](C)[C@H](NC(=O)[C@H](CC(C)C)NC(=O)[C@H](CCC(N)=O)NC(=O)[C@H](CC(=O)O)NC(=O)[C@H](C)NC(=O)[C@H](CC(C)C)NC(=O)CN)C(=O)N[C@@H](Cc1c[nH]cn1)C(=O)N[C@@H](CC(C)C)C(=O)O [Vif 101 (9L)]	219	–
ALVEMGHHV [Vpu66(9V)^mod]	–	very strong immune response
DLADQLIHL [Vif 101 (1 D)]	1950	–
ELADQLIHL [Vif101(1E)^var]	6590	–
FLGKIWPV [Gag433(9V)^mod]	–	very strong immunogens
GLADQLIHI [Vif 101 (9 I)]	30	–
HLADQLIHQ [G1HL9Q]	1160	–
SLADQLIHL [Vif 101 (1 S)]	43	–

— patent EP2021356B1, “HIV VACCINE” (priority 2006, dated 2007)
